According to ChEMBL document CHEMBL1151233, “Biotransformation of imperatorin by Aspergillus flavus” (J Nat Prod, 2004):

system: Hepatitis B virus; test: Antiviral activity against hepatitis B virus infected in human MS-G2 cells assessed as inhibition of e-antigen production at 50 uM after 48 hrs; assay type: functional; details: MS-G2, 48 h

SMILES	inhibition at 50 µM
C/C(=C/COc1c2occc2cc2ccc(=O)oc12)C(=O)O	1.6%
C/C(=C\COc1c2occc2cc2ccc(=O)oc12)CO	16.5%
CC(C)=CCOc1c2occc2cc2ccc(=O)oc12 [PENTOSALEN]	22.5%
O=c1ccc2cc3ccoc3c(O)c2o1 [XANTHOTOXOL]	2.7%
C/C(=C/COc1c2occc2cc2ccc(=O)oc12)CO [Z-trichoclin]	11.9%

system: Hepatitis B virus; test: Antiviral activity against hepatitis B virus infected in human MS-G2 cells assessed as inhibition of surface antigen production at 50 uM after 48 hrs; assay type: functional; details: MS-G2, 48 h

SMILES	inhibition at 50 µM
C/C(=C/COc1c2occc2cc2ccc(=O)oc12)C(=O)O	12.3%
C/C(=C\COc1c2occc2cc2ccc(=O)oc12)CO	37.4%
CC(C)=CCOc1c2occc2cc2ccc(=O)oc12 [PENTOSALEN]	55.3%
O=c1ccc2cc3ccoc3c(O)c2o1 [XANTHOTOXOL]	10.5%
C/C(=C/COc1c2occc2cc2ccc(=O)oc12)CO [Z-trichoclin]	34.6%

system: not listed separately; test: Cytotoxicity against human MS-G2 cells at 10 uM by MTT assay; assay type: cell-based; details: read-out: INH

SMILES	cytotoxicity at 10 µM
C/C(=C/COc1c2occc2cc2ccc(=O)oc12)C(=O)O	11.7%
C/C(=C\COc1c2occc2cc2ccc(=O)oc12)CO	13%
CC(C)=CCOc1c2occc2cc2ccc(=O)oc12 [PENTOSALEN]	11%
O=c1ccc2cc3ccoc3c(O)c2o1 [XANTHOTOXOL]	7.8%
C/C(=C/COc1c2occc2cc2ccc(=O)oc12)CO [Z-trichoclin]	18%

system: not listed separately; test: Cytotoxicity against human MS-G2 cells at 100 uM by MTT assay; assay type: cell-based; details: read-out: INH

SMILES	cytotoxicity at 100 µM
C/C(=C/COc1c2occc2cc2ccc(=O)oc12)C(=O)O	14.7%
C/C(=C\COc1c2occc2cc2ccc(=O)oc12)CO	10.3%
CC(C)=CCOc1c2occc2cc2ccc(=O)oc12 [PENTOSALEN]	-8.7%
O=c1ccc2cc3ccoc3c(O)c2o1 [XANTHOTOXOL]	17%
C/C(=C/COc1c2occc2cc2ccc(=O)oc12)CO [Z-trichoclin]	12.6%

system: Hepatitis B virus; test: Antiviral activity against hepatitis B virus infected in human MS-G2 cells assessed as inhibition of surface antigen production at 100 uM after 48 hrs; assay type: functional; details: MS-G2, 48 h

SMILES	inhibition at 100 µM
C/C(=C/COc1c2occc2cc2ccc(=O)oc12)C(=O)O	27%
C/C(=C\COc1c2occc2cc2ccc(=O)oc12)CO	61.3%
CC(C)=CCOc1c2occc2cc2ccc(=O)oc12 [PENTOSALEN]	68.4%
O=c1ccc2cc3ccoc3c(O)c2o1 [XANTHOTOXOL]	19.8%
C/C(=C/COc1c2occc2cc2ccc(=O)oc12)CO [Z-trichoclin]	45.2%

system: not listed separately; test: Cytotoxicity against human MS-G2 cells at 50 uM by MTT assay; assay type: cell-based; details: read-out: INH

SMILES	cytotoxicity at 50 µM
C/C(=C/COc1c2occc2cc2ccc(=O)oc12)C(=O)O	18.4%
C/C(=C\COc1c2occc2cc2ccc(=O)oc12)CO	3.4%
CC(C)=CCOc1c2occc2cc2ccc(=O)oc12 [PENTOSALEN]	8.9%
O=c1ccc2cc3ccoc3c(O)c2o1 [XANTHOTOXOL]	12.2%
C/C(=C/COc1c2occc2cc2ccc(=O)oc12)CO [Z-trichoclin]	15%

system: Hepatitis B virus; test: Antiviral activity against hepatitis B virus infected in human MS-G2 cells assessed as inhibition of e-antigen production at 100 uM after 48 hrs; assay type: functional; details: MS-G2, 48 h

SMILES	inhibition at 100 µM
C/C(=C/COc1c2occc2cc2ccc(=O)oc12)C(=O)O	12.5%
C/C(=C\COc1c2occc2cc2ccc(=O)oc12)CO	29%
CC(C)=CCOc1c2occc2cc2ccc(=O)oc12 [PENTOSALEN]	34.3%
O=c1ccc2cc3ccoc3c(O)c2o1 [XANTHOTOXOL]	0.7%
C/C(=C/COc1c2occc2cc2ccc(=O)oc12)CO [Z-trichoclin]	12.4%

system: Hepatitis B virus; test: Antiviral activity against hepatitis B virus infected in human MS-G2 cells assessed as inhibition of e-antigen production at 10 uM after 48 hrs; assay type: functional; details: MS-G2, 48 h

SMILES	inhibition at 10 µM
C/C(=C/COc1c2occc2cc2ccc(=O)oc12)C(=O)O	0.7%
C/C(=C\COc1c2occc2cc2ccc(=O)oc12)CO	8%
CC(C)=CCOc1c2occc2cc2ccc(=O)oc12 [PENTOSALEN]	3.8%
O=c1ccc2cc3ccoc3c(O)c2o1 [XANTHOTOXOL]	-5%
C/C(=C/COc1c2occc2cc2ccc(=O)oc12)CO [Z-trichoclin]	8.2%

system: Hepatitis B virus; test: Antiviral activity against hepatitis B virus infected in human MS-G2 cells assessed as inhibition of surface antigen production at 10 uM after 48 hrs; assay type: functional; details: MS-G2, 48 h

SMILES	inhibition at 10 µM
C/C(=C/COc1c2occc2cc2ccc(=O)oc12)C(=O)O	13.2%
C/C(=C\COc1c2occc2cc2ccc(=O)oc12)CO	20.9%
CC(C)=CCOc1c2occc2cc2ccc(=O)oc12 [PENTOSALEN]	14.9%
O=c1ccc2cc3ccoc3c(O)c2o1 [XANTHOTOXOL]	5.2%
C/C(=C/COc1c2occc2cc2ccc(=O)oc12)CO [Z-trichoclin]	13.6%
